# Read-outs that look alike come from different tables or passages of the source.
# Tests used:
# [1] = target: T1, PBR (Rattus norvegicus (Rat), UniProt P16257); assay: In vivo biodistribution, olfactory bulb:striatum uptake; conditions: 18F-labelled agents, adult male Wistar rats, lateral tail vein, 30 min post-injection
# Protocol: In vivo imaging agents 1-7 as prepared in Examples 7, 8 and 9 above were tested in the in vivo biodistribution model and their biodistribution compared to that of the prior art compound [^18F]FE-PBR (prepared according to Example 14 of WO 2007/057705).
# Adult male Wistar rats (200-300 g) were injected with 1-3 MBq of each in vivo imaging agent via the lateral tail vein. At 2 10,30 or 60 min (n=3) after injection, rats were euthanised and tissues or fluids were sampled for radioactive measurement by liquid scintillation counting.
# [2] = target: Wistar rat heart PBR (Rattus norvegicus (Rat), UniProt P16257); assay: In vitro potency assay: competition for binding to PBR against 0.3 nM [3H]-PK-11195
# Protocol: The reaction was carried out in 50 mM Tris-HCl, pH 7.4 10 mM MgCl2 for 15 minutes at 25° C.
# [3] = target: T1, PBR; assay: Autoradiography using facial nerve axotomy (FNA) model; assay type: in vivo; conditions: facial nucleus, 30 minutes after injection
# Protocol: For in vivo studies, male Wistar rats (180-200 g) were used. Under Isoflurane anaesthesia, the hair from the right side of the auricular region was removed. An infraauricular incision was made and the main trunk of the facial nerve identified. The facial nerve was severed behind the ear at the exit from the stylomastoid foramen. The wound was sutured and animals left to recover. Seven days post-surgery animals were injected with ˜5-10 MBq in vivo imaging agent 1 via the lateral tail vein. Animals were killed 30 minutes later and brain stem removed and frozen in isopentane. Cryostat sections (12 μm) of brainstem containing both facial nuclei were mounted on glass slides and exposed to phosphor screen overnight.
# Screens were then scanned on the Storm (GE Healthcare) phosphor-imager and the resultant scan was analysed and quantified using ImageQuant TL (GE Healthcare).
# [4] = non-radioactive analogues, Wistar rat heart PBR, vs 0.3 nM [3H]-PK-11195, 15 minutes at 25° C., read-out: Ki
Compound,OB:Striatum @ 30 min [1],"Ki [2, 4]","Average intensity in the lesioned side ([3]; lesioned side, seven days post-surgery)",Average intensity in the non-lesioned side ([3]; non-lesioned side),Ki [2]
CCN(CC)C(=O)C1Sc2ccccc2-c2c1c1c(OC)cccc1n2CCF (stereo not shown) [compound 7],2.42,1090 pM,–,–,–
"CCN(CC)C(=O)C1Sc2ccccc2-c2c1c1cc(OC)ccc1n2CCF (racemic) [Imaging Agent 1, (+-)-11-(2-fluoroethyl)-8-methoxy-6,11-dihydro-5-thia-11-aza-benzo[a]fluorene-6-carboxylic acid diethyl amide]",–,370 pM,7.75±0.95,3.73±0.36,–
"(+-)-11-(2-fluoroethyl)-10-methoxy-6,11-dihydro-5-thia-11-aza-benzo[a]fluorene-6-carboxylic acid diethyl amide [Imaging Agent 3]",3.50,400 pM,–,–,–
"(+-)-4-fluoro-11-(2-fluoroethyl)-6,11-dihydro-5-thia-11-aza-benzo[a]fluorene-6-carboxylic acid diethyl amide [Imaging Agent 4]",2.00,930 pM,–,–,–
CCOc1ccc2c(c1)c1c(n2CCF)-c2ccccc2SC1C(=O)N(CC)CC (stereo not shown) [compound 6],2.67,520 pM,–,–,–
"CCN(CC)C(=O)C1Sc2ccccc2-c2c1c1ccccc1n2CC[18F] (stereo not shown) [[^18F]FE-PBR, reference compound]",1.42,–,–,–,680 pM

# Reference: patent publication US9481685B2, “Imaging neuroinflammation” (GE Healthcare Limited, priority 2008, dated 2016)
